# Measured values reported in US20230122249A1, “1H-PYRAZOLO[4,3-d]PYRIMIDINE COMPOUNDS AS TOLL-LIKE RECEPTOR 7 (TLR7) AGONISTS” (BRISTOL-MYERS SQUIBB COMPANY, priority 2020, published 2023).
# Test system: CD69 in human whole blood
# Experiment: Induction of CD69 in human whole blood (hWB)
# Format: cell-based
# Conditions: heparinized human whole blood, 17 h, CD69 surface staining; 100% set to 1 uM resiquimod; average where assay repeated
# Method: The induction of Type I interferon (IFN) MX-1 genes and the B-cell activation marker CD69 are downstream events that occur upon activation of the TLR7 pathway. The following is a human whole blood assay that measures their induction in response to a TLR7 agonist.
# Heparinized human whole blood was harvested from human subjects and treated with test TLR7 agonist compounds at 1 mM. The blood was diluted with RPMI 1640 media and Echo was used to predot 10 nL per well giving a final concentration of 1 uM (10 nL in 10 uL of blood). After mixing on a shaker for 30 sec, the plates were covered and placed in a 37° C. chamber for o/n=17 hrs. Fixing/lysis buffer was prepared (5×->1×in H2O, warm at 37° C.; Cat# BD 558049) and kept the perm buffer (on ice) for later use.
# For surface markers staining (CD69): prepared surface Abs: 0.045 ul hCD14-FITC (ThermoFisher Cat # MHCD1401)+0.6 ul hCD19-ef450 (ThermoFisher Cat #48-0198-42)+1.5 ul hCD69-PE (cat# BD555531)+0.855 ul FACS buffer. Added 3 ul/well, spin1000 rpm for 1 min and mixed on shaker for 30 sec, put on ice for 30 mins. Stop stimulation after 30 minutes with 70 uL of prewarmed 1×fix/lysis buffer and use Feliex mate to resuspend (15 times, change tips for each plate) and incubate at 37° C. for 10 minutes.
# Centrifuge at 2000 rpm for 5 minutes aspirate with HCS plate washer, mix on shaker for 30 sec and then wash with 70 uL in dPBS and pelleted 2 xs (2000 rpm for 5 min) and 50 ul wash in FACS buffer pelleted 1 xs(2000 rpm for 5 min). Mix on shaker for 30 sec. For Intracellular markers staining (MX-1): Add 50 ul of BD Perm buffer III and mix on shaker for 30 sec. Incubate on ice for 30 minutes (in the dark). Wash with 50 uL of FACS buffer 2×(spin @2300 rpm×5 min after perm) followed by mixing on shaker for 30 sec. Resuspended in 20 ul of FACS buffer containing MX1 antibody ( )(4812)-Alexa 647: Novus Biologicals #NBP2-43704AF647) 20 ul FACS bf+0.8 ul hlgG+0.04 ul MX-1. Spin 1000 rpm for 1 min, mix on shaker for 30 se and the samples were incubated at RT in the dark for 45 minutes followed by washing 2×FACS buffer (spin @2300 rpm×5 min after perm). Resuspend 20 ul (35 uL total per well) of FACS buffer and cover with foil and place in 4° C. to read the following day. Plates were read on iQuePlus. The results were loaded into toolset and […] curves are generated in curve master. The y-axis 100% is set to 1 uM of resiquimod.
row,EC50 [nM],SMILES
1,0.5,CCC[C@@H](CCO)Nc1nc(N)nc2cnn(Cc3ccc(CN4CC5(CCOCC5)C4)cc3OC)c12 [Compound 113]
2,14,COc1cc(CN2CC3(C2)CN(C[C@H](C)O)C3)ccc1Cn1ncc2nc(N)nc(NCC3CC4(CC4)C3)c21 [Compound 241]

# Further lines, the molecule ahead of its results:
row,SMILES,EC50 [nM]
1,COc1cc(CN2CC3(CNC3)C2)ccc1Cn1ncc2nc(N)nc(NCC3CC(C4CC4)C3)c21 (stereo not shown) [Compound 152],152
2,COc1cc(C(=O)N2C[C@H]3CNC[C@H]3C2)ccc1Cn1ncc2nc(N)nc(NCC3CC4(C3)CC4(F)F)c21 (stereo partly shown) [Compound 159],1000
3,CN1CCC(NC(=O)c2ccc(Cn3ncc4nc(N)nc(NCC5CC6(CC6)C5)c43)c(OC(F)F)c2)CC1 [Compound 220],117
4,Nc1nc(NCC2CC3(CC3)C2)c2c(cnn2Cc2ccc(CN3C[C@H]4CNC[C@H]4C3)cc2OC(F)F)n1 [Compound 243],193
5,COc1cc(C(=O)N2CC3(CN(C)C3)C2)ccc1Cn1ncc2nc(N)nc(NCc3cc(C)on3)c21 [Compound 214],10.9
6,COc1cc(CN2CC3(C2)CN(C(C)=O)C3)ccc1Cn1ncc2nc(N)nc(NCc3noc(C)n3)c21 [Compound 264],78.2
7,COc1cc(CN2CC3(C2)CN(C(C)=O)C3)ccc1Cn1ncc2nc(N)nc(NCc3cc(C)on3)c21 [Compound 212],61.9

# Target: T1, human TLR7 (Homo sapiens, UniProt Q9NYK1)
# T1 construct: host or cells: HEK-Blue TLR7 cells (engineered human embryonic kidney cells)
# T1 sequence (Q9NYK1 27-1049): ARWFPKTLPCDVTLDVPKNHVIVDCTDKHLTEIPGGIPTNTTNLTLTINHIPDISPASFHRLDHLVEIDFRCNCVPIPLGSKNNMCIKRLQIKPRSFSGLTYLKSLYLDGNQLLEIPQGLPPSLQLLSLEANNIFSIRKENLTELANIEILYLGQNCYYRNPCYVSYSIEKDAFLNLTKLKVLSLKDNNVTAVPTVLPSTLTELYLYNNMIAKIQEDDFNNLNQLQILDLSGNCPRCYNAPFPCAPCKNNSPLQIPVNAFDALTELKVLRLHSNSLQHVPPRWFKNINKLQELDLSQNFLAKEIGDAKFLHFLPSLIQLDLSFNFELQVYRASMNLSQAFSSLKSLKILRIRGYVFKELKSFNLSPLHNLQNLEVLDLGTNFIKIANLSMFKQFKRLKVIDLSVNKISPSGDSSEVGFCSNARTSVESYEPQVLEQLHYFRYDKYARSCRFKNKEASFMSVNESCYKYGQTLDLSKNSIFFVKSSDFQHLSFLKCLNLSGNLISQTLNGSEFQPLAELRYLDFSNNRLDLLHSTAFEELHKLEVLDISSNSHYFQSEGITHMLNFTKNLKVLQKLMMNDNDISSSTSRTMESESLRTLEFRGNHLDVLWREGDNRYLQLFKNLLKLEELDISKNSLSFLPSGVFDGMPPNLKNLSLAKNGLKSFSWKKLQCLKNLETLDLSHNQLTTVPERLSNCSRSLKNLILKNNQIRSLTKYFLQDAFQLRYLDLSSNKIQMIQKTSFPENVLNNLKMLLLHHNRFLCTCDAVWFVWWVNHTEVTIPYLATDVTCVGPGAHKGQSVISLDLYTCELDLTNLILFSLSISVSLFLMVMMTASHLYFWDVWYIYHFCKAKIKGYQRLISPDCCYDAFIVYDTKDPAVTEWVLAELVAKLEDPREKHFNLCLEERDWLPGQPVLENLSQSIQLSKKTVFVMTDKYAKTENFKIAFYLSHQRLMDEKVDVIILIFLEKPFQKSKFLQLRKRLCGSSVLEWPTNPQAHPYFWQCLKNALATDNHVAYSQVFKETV
# Experiment: Human TLR7 agonist activity (hTLR7 reporter) assay in HEK-Blue TLR7 cells, SEAP readout
# Format: cell-based
# Conditions: 18 h treatment, average where assay repeated
# Method: This procedure describes a method for assaying human TLR7 (hTLR7) agonist activity of the compounds disclosed in this specification.
# HEK-Blue™ TLR7 cells were added to each well of a 384-well tissue-culture plate (15,000 cells per well) and incubated 16-18 h at 37° C., 5% CO2. Compounds (100 nl) were dispensed into wells containing the HEK-Blue™ TLR cells and the treated cells were incubated at 37° C., 5% CO2. After 18 h treatment ten microliters of freshly-prepared Quanti-Blue™ reagent (Invivogen) was added to each well, incubated for 30 min (37° C., 5% CO2) and SEAP levels measured using an Envision plate reader (OD=620 nm). The half maximal effective concentration values (EC50; compound concentration which induced a response halfway between the assay baseline and maximum) were calculated.
row,EC50 [nM],SMILES
1,4.6,CCC[C@@H](CCO)Nc1nc(N)nc2cnn(Cc3ccc(CN4CC5(CCOCC5)C4)cc3OC)c12 [Compound 113]
2,16.6,COc1cc(CN2C[C@H]3C[C@@H]2CN3C)ccc1Cn1ncc2nc(N)nc(NCC3CC4(CC4)C3)c21 [Compound 134]
3,72.9,COc1cc(CN2CC3(C2)CN(C[C@H](C)O)C3)ccc1Cn1ncc2nc(N)nc(NCC3CC4(CC4)C3)c21 [Compound 241]
4,84.1,COc1cc(CNC2CCC2)ccc1Cn1ncc2nc(N)nc(NCC3CC4(C3)CC4F)c21 (mixture of isomers) [Compound 115]
5,39.7,COc1cc(CNC2CCOCC2)ccc1Cn1ncc2nc(N)nc(NCC3CC4(CC4)C3)c21 [Compound 130]
6,69.8,COc1cc(CN2CC3(CCOCC3)C2)ccc1Cn1ncc2nc(N)nc(NCC3CC4(CC4)C3)c21 [Compound 135]
7,95.4,CCCCNc1nc(N)nc2cnn(Cc3ccc(CN4CC5(C4)CC(F)(F)C5)cc3OC)c12 [Compound 102]
8,1230,COc1cc(CN2CC3(C2)CN(C(C)=O)C3)ccc1Cn1ncc2nc(N)nc(NCC3CC34CC4)c21 (stereo not shown) [Compound 109]
9,24.4,COc1cc(CNC2CCC2)ccc1Cn1ncc2nc(N)nc(NCC3CC4(CC4)C3)c21 [Compound 129]
10,88.1,COc1cc(CNC2CCOCC2)ccc1Cn1ncc2nc(N)nc(NCC3CC4(C3)CC4(F)F)c21 (stereo not shown) [Compound 137]
11,3.4,CCC[C@@H](CCO)Nc1nc(N)nc2cnn(Cc3ccc(CNC4CCOCC45CCC5)cc3OC)c12 (stereo partly shown) [Compound 114]
12,138,CCCCNc1nc(N)nc2cnn(Cc3ccc(CN4CC5(C4)CN(C(=O)CC(C)C)C5)cc3OC)c12 [Compound 104]
13,163,COc1cc(CNC2CCOCC2)ccc1Cn1ncc2nc(N)nc(NCC3CC4(C3)CC4F)c21 (stereo not shown) [Compound 116]
14,68.1,COc1cc(CNC2CCC2)ccc1Cn1ncc2nc(N)nc(NCC3CC4(C3)CC4(F)F)c21 (mixture of isomers) [Compound 136]
15,31.9,CCCCNc1nc(N)nc2cnn(Cc3ccc(CN4CC5(C4)CN(C(=O)C4CCC4)C5)cc3OC)c12 [Compound 110]

# Further lines, the molecule ahead of its results:
row,SMILES,EC50 [nM]
1,COc1cc(CN2CC3(CNC3)C2)ccc1Cn1ncc2nc(N)nc(NCC3CC(C4CC4)C3)c21 (stereo not shown) [Compound 152],167
2,COc1cc(C(=O)N2C[C@H]3CNC[C@H]3C2)ccc1Cn1ncc2nc(N)nc(NCC3CC4(C3)CC4(F)F)c21 (stereo partly shown) [Compound 159],909
3,COc1cc(C(=O)N2CCN(C)CC2)ccc1Cn1ncc2nc(N)nc(NCC3CC4(C3)CC4(F)F)c21 (stereo not shown) [Compound 165],147
4,CN1CCC(NC(=O)c2ccc(Cn3ncc4nc(N)nc(NCC5CC6(CC6)C5)c43)c(OC(F)F)c2)CC1 [Compound 220],1240
5,Nc1nc(NCC2CC3(CC3)C2)c2c(cnn2Cc2ccc(CN3C[C@H]4CNC[C@H]4C3)cc2OC(F)F)n1 [Compound 243],283
6,COc1cc(C(=O)N2CC3(CN(C)C3)C2)ccc1Cn1ncc2nc(N)nc(NCc3cc(C)on3)c21 [Compound 214],67.6
7,COc1cc(CN2CC3(C2)CN(C(C)=O)C3)ccc1Cn1ncc2nc(N)nc(NCc3noc(C)n3)c21 [Compound 264],916
8,COc1cc(CN2C[C@@H]3C[C@H]2CN3)ccc1Cn1ncc2nc(N)nc(NCC3CC4(C3)CC4F)c21 (stereo partly shown) [Compound 124],193
9,COc1cc(CN2CC3(C2)CN(C(C)C2(C)CC2)C3)ccc1Cn1ncc2nc(N)nc(NCC3CC4(C3)CC4(F)F)c21 (stereo not shown) [Compound 123],320
10,COc1cc(CN2C[C@H]3C[C@@H]2CN3C)ccc1Cn1ncc2nc(N)nc(NCC3CC4(C3)CC4(F)F)c21 (stereo partly shown) [Compound 142],49.7
11,COc1cc(CN2CC3(C2)CN(C(C)=O)C3)ccc1Cn1ncc2nc(N)nc(NCC3CC4(C3)CC4(F)F)c21 (stereo not shown) [Compound 122],241
12,COc1cc(CN2CC3(CC(O)C3)C2)ccc1Cn1ncc2nc(N)nc(NCC3CC4(C3)CC4(F)F)c21 (stereo not shown) [Compound 143],103
13,COc1cc(CN2CC3(CN(C)C3)C2)ccc1Cn1ncc2nc(N)nc(NCC3CC4(C3)CC4(F)F)c21 (stereo not shown) [Compound 138],244
14,COc1cc(C(=O)N2CC3(CC(O)C3)C2)ccc1Cn1ncc2nc(N)nc(NCC3CC4(C3)CC4(F)F)c21 (stereo not shown) [Compound 160],2580
15,COc1cc(C(=O)N2CCOCC2)ccc1Cn1ncc2nc(N)nc(NCC3CC4(C3)CC4(F)F)c21 (stereo not shown) [Compound 161],354
16,CCCCNc1nc(N)nc2cnn(Cc3ccc(CN4CC5(C4)CN(C(=O)C(C)(C)C)C5)cc3OC)c12 [Compound 105],60
17,COc1cc(C(=O)NC2CCN(C)CC2)ccc1Cn1ncc2nc(N)nc(NCC3CC4(C3)CC4(F)F)c21 (stereo not shown) [Compound 164],638
18,COc1cc(CN2CC3(CC(OC)C3)C2)ccc1Cn1ncc2nc(N)nc(NCC3CC4(C3)CC4(F)F)c21 (stereo not shown) [Compound 144],69.5
19,COc1cc(CN2C[C@H]3CNC[C@H]3C2)ccc1Cn1ncc2nc(N)nc(NCC3CC4(C3)CC4F)c21 (stereo partly shown) [Compound 126],244
20,COc1cc(CN2CC3(C2)CN(C(=O)C2(C)CC2)C3)ccc1Cn1ncc2nc(N)nc(NCC3CC4(C3)CC4F)c21 (stereo not shown) [Compound 128],349
21,COc1cc(CN2C[C@H]3CNC[C@H]3C2)ccc1Cn1ncc2nc(N)nc(NCC3CC4(C3)CC4(F)F)c21 (stereo partly shown) [Compound 140],435
22,COc1cc(CN2C[C@H]3C[C@@H]2CN3C)ccc1Cn1ncc2nc(N)nc(NCC3CC4(C3)CC4F)c21 (stereo partly shown) [Compound 125],59.2
23,COc1cc(CN2CC3(CN(C)C3)C2)ccc1Cn1ncc2nc(N)nc(NCC3CC4(C3)CC4F)c21 (stereo not shown) [Compound 120],262
24,COc1cc(C(=O)N(C)C)ccc1Cn1ncc2nc(N)nc(NCC3CC4(C3)CC4(F)F)c21 (stereo not shown) [Compound 162],497
25,COc1cc(CN2C[C@H]3CN(C)C[C@H]3C2)ccc1Cn1ncc2nc(N)nc(NCC3CC4(C3)CC4F)c21 (stereo partly shown) [Compound 118],137
